{"source": "patent US20230201202A1", "about": "“COMPOSITIONS AND METHODS FOR SENSITIZING ACUTE MYELOID LEUKEMIAS TO CHEMOTHERAPY” (Duke University, priority 2020, published 2023)", "type_in_all_cases": "cell-based", "key": {"[1]": {"system": "phosphorylation of AKT and downstream substrates", "experiment": "Western immunoblotting of AKT pathway phosphorylation in AML cell lines", "conditions": "for Phosphorylation of AKT and its downstream substrates: cell line models of AML, immunoblot (FIG. 1d, FIG. 4b)"}, "AML cells": {"system": "AML cells", "experiment": "In vitro drug sensitivity assay (GI50 assay, CellTiter-Glo)", "conditions": "for Chemosensitization of AML cells by inhibitors of alternative PI3K catalytic isoforms (p110α, p110β, p110δ): sensitivity to doxorubicin, S63845 or selinexor (FIG. 3b); for Sensitization of AML cells to the drug by IPI-549 treatment; GI50 of combination vs drug alone: indicated AML cell lines (FIG. 3a-b); for Chemosensitization to the drug mediated by PI3Kγ inhibition with IPI-549: OCI-AML2 cells (FIG. 6)", "protocol": "AML cells were plated in 96-well plates at a density of 5,000-10,000 cells per 100 μL per well. Wells were treated with drug dilution series at the doses indicated and cultured for 72 hours. Subsequently, relative cell viability was approximated using Promega CellTiter-Glo Luminescent Cell Viability Assay, normalized to either DMSO or the indicated background drug. GI50 values where approximated from dose-response curves plotted using GraphPad/Prism 8 software."}, "phosphorylation of AKT": {"system": "phosphorylation of AKT", "experiment": "Conditioned media and SDF1-a cytokine experiments (AKT activation in AML cells)", "protocol": "Serum free RPMI-1640 medium with incubated with a confluent plate of HS-5 cells for 36 hours. Conditioned media was centrifuged at 1200 rpm for 5 minutes and filtered with a 0.45 uM filter to remove any remaining cells. AML cells were incubated with conditioned media with or without IPI-549 for 30 minutes prior to harvesting on ice for lysate preparation. An analogous strategy was performed with SDF-1a (200 ng/mL) containing media. SDF-1a was purchased from ProteinTech and solubilized in water."}}}
{"compound": "Cc1nc(NC(=O)N2CCC[C@H]2C(N)=O)sc1-c1ccnc(C(C)(C)C(F)(F)F)c1", "note": "[BYL-719, Alpelisib]", "values": [{"measurement": "Phosphorylation of AKT and its downstream substrates", "setting": "[1]", "result": "minimally capable of suppressing"}, {"measurement": "Chemosensitization of AML cells by inhibitors of alternative PI3K catalytic isoforms (p110α, p110β, p110δ)", "setting": "AML cells", "result": "not observed"}]}
{"compound": "C[C@H](NC(=O)c1c(N)nn2cccnc12)c1cc2cccc(C#Cc3cnn(C)c3)c2c(=O)n1-c1ccccc1", "note": "[IPI-549]", "values": [{"measurement": "Phosphorylation of AKT and its downstream substrates", "setting": "[1]", "result": "lost"}, {"measurement": "Correlation of sensitivity (GI50) to IPI-549 with sensitivity to AKT inhibition with MK-2206", "setting": "AML cells; panel of 10 AML cell lines (FIG. 5b-d)", "result": "strongly correlated"}, {"measurement": "Activation of AKT signaling by media conditioned with human BM-MSCs (HS-5)", "setting": "phosphorylation of AKT; HL-60 (500 nM) and OCI-AML3 (100 nM IPI-549) cells (FIG. 1g)", "result": "fully precluded"}, {"measurement": "Activation of AKT by SDF1α (CXCL12) stimulation", "setting": "phosphorylation of AKT; serum-deprived AML cells, 200 ng/mL SDF1α, HL-60 500 nM, OCI-AML3 100 nM IPI-549 (FIG. 1h)", "result": "prevented"}]}
{"compound": "Cc1sc2c(c1C)C(c1ccc(Cl)cc1)=N[C@@H](CC(=O)OC(C)(C)C)c1nnc(C)n1-2", "note": "[JQ1]", "values": [{"measurement": "Sensitization of AML cells to the drug by IPI-549 treatment; GI50 of combination vs drug alone", "setting": "AML cells", "result": "can sensitize"}]}
{"compound": "CC(C)n1nc(-c2ccc3oc(N)nc3c2)c2c(N)ncnc21", "note": "[MLN-128]", "values": [{"measurement": "Effect on potency of AKT/p110γ inhibition (MK-2206 or IPI-549); GI50 of combination vs single drug", "setting": "AML cells; panel of AML cell lines (FIG. 2d, FIG. 5g)", "result": "enhanced the potency"}]}
{"compound": "O=C(Nc1ccc2[nH]nc(-c3ccncc3)c2c1)[C@@H]1CCN(CC(=O)N2CCN(c3ccc(-c4ncccn4)cc3)CC2)C1", "note": "[SCH772984]", "values": [{"measurement": "Sensitization of AML cells to the drug by IPI-549 treatment; GI50 of combination vs drug alone", "setting": "AML cells", "result": "can sensitize"}]}
{"compound": "Cc1cc(C(C)Nc2ccccc2)c2nc(N3CCOCC3)cc(=O)n2c1", "note": "(stereo not drawn) [TGX-221]", "values": [{"measurement": "Chemosensitization of AML cells by inhibitors of alternative PI3K catalytic isoforms (p110α, p110β, p110δ)", "setting": "AML cells", "result": "not observed"}]}
{"compound": "Nc1ncn([C@@H]2O[C@H](CO)[C@@H](O)[C@H]2O)c(=O)n1", "note": "[azacytidine]", "values": [{"measurement": "Chemosensitization to the drug mediated by PI3Kγ inhibition with IPI-549", "setting": "AML cells", "result": "not observed"}]}
{"compound": "Cc1c(-c2c(-c3ccc(F)o3)sc3ncnc(O[C@H](Cc4ccccc4OCc4ccnn4CC(F)(F)F)C(=O)O)c23)ccc(OCCN2CCN(C)CC2)c1Cl", "note": "[compound 563845]", "values": [{"measurement": "Sensitization of AML cells to the drug by IPI-549 treatment; GI50 of combination vs drug alone", "setting": "AML cells", "result": "can sensitize"}]}
{"compound": "Nc1ccn([C@@H]2O[C@H](CO)[C@@H](O)[C@@H]2O)c(=O)n1", "note": "[cytarabine]", "values": [{"measurement": "Chemosensitization to the drug mediated by PI3Kγ inhibition with IPI-549", "setting": "AML cells", "result": "not observed"}]}
{"compound": "COc1cccc2c1C(=O)c1c(O)c3c(c(O)c1C2=O)C[C@@](O)(C(C)=O)C[C@@H]3O[C@H]1C[C@H](N)[C@H](O)[C@H](C)O1", "note": "[daunorubicin]", "values": [{"measurement": "Daunorubicin sensitivity under p110α inhibition; GI50 of combination vs daunorubicin alone", "setting": "AML cells; any of the AML models tested (FIG. 2e; legend prints BYL-549)", "result": "did not alter"}, {"measurement": "Daunorubicin sensitivity under p110γ inhibition (IPI-549); GI50 of combination vs daunorubicin alone", "setting": "AML cells; in 9/10 AML cell lines tested (FIG. 2e)", "result": "significantly potentiated"}, {"measurement": "Sensitization of AML cells to the drug by IPI-549 treatment; GI50 of combination vs drug alone", "setting": "AML cells", "result": "can sensitize"}]}
{"compound": "CC(=O)O[C@@]12CO[C@@H]1C[C@H](O)[C@@]1(C)C(=O)[C@H](O)C3=C(C)[C@@H](OC(=O)[C@H](O)[C@@H](NC(=O)OC(C)(C)C)c4ccccc4)C[C@@](O)([C@@H](OC(=O)c4ccccc4)[C@H]21)C3(C)C", "note": "[docetaxel]", "values": [{"measurement": "Chemosensitization to the drug mediated by PI3Kγ inhibition with IPI-549", "setting": "AML cells", "result": "not observed"}]}
{"compound": "COc1cccc2c1C(=O)c1c(O)c3c(c(O)c1C2=O)C[C@@](O)(C(=O)CO)C[C@@H]3O[C@H]1C[C@H](N)[C@H](O)[C@H](C)O1", "note": "[doxorubicin]", "values": [{"measurement": "Sensitization of AML cells to the drug by IPI-549 treatment; GI50 of combination vs drug alone", "setting": "AML cells", "result": "can sensitize"}]}
{"compound": "COc1cc([C@@H]2c3cc4c(cc3[C@@H](O[C@@H]3O[C@@H]5CO[C@@H](C)O[C@H]5[C@H](O)[C@H]3O)[C@H]3COC(=O)[C@H]23)OCO4)cc(OC)c1O", "note": "[etoposide]", "values": [{"measurement": "Sensitization of AML cells to the drug by IPI-549 treatment; GI50 of combination vs drug alone", "setting": "AML cells", "result": "can sensitize"}]}
{"compound": "CN1CC[C@@H](NC(=O)Nc2ccc(C#N)cc2)C[C@@H]1c1nc2ccccc2[nH]1", "note": "[glasdegib]", "values": [{"measurement": "Chemosensitization to the drug mediated by PI3Kγ inhibition with IPI-549", "setting": "AML cells", "result": "not observed"}]}
{"compound": "CC(=O)[C@]1(O)Cc2c(O)c3c(c(O)c2[C@@H](O[C@H]2C[C@H](N)[C@H](O)[C@H](C)O2)C1)C(=O)c1ccccc1C3=O", "note": "[idarubicin]", "values": [{"measurement": "Sensitization of AML cells to the drug by IPI-549 treatment; GI50 of combination vs drug alone", "setting": "AML cells", "result": "can sensitize"}]}
{"compound": "CN(Cc1cnc2nc(N)nc(N)c2n1)c1ccc(C(=O)N[C@@H](CCC(=O)O)C(=O)O)cc1", "note": "[methotrexate]", "values": [{"measurement": "Chemosensitization to the drug mediated by PI3Kγ inhibition with IPI-549", "setting": "AML cells", "result": "not observed"}]}
{"compound": "O=C1[O][Pt]2([NH][C@@H]3CCCC[C@H]3[NH]2)[O]C1=O", "note": "[oxaliplatin]", "values": [{"measurement": "Chemosensitization to the drug mediated by PI3Kγ inhibition with IPI-549", "setting": "AML cells", "result": "not observed"}]}
{"compound": "CC(C)(C)c1cc(NC(=O)Nc2ccc(-c3cn4c(n3)sc3cc(OCCN5CCOCC5)ccc34)cc2)no1", "note": "[quizartinib]", "values": [{"measurement": "Sensitization of AML cells to the drug by IPI-549 treatment; GI50 of combination vs drug alone", "setting": "AML cells", "result": "can sensitize"}]}
{"compound": "O=C(/C=C\\n1cnc(-c2cc(C(F)(F)F)cc(C(F)(F)F)c2)n1)NNc1cnccn1", "note": "[selinexor]", "values": [{"measurement": "Sensitization of AML cells to the drug by IPI-549 treatment; GI50 of combination vs drug alone", "setting": "AML cells", "result": "can sensitize"}]}
{"compound": "CNC(=O)c1cc(Oc2ccc(NC(=O)Nc3ccc(Cl)c(C(F)(F)F)c3)cc2)ccn1", "note": "[sorafenib]", "values": [{"measurement": "Sensitization of AML cells to the drug by IPI-549 treatment; GI50 of combination vs drug alone", "setting": "AML cells", "result": "can sensitize"}]}
{"compound": "pertussis toxin", "values": [{"measurement": "AKT phosphorylation", "setting": "[1]; AML cell lines, Ptx 100 ng/mL for 24 hours (FIG. 1f)", "result": "diminished"}]}
